Results published in US20180071261A1, “CYCLOCREATINE MICROSUSPENSION” (Lumos Pharma, Inc., priority 2015, published 2018).
Values after ≈ are worked out from the molar mass of the structure shown.

Experiments:
Type in all cases: physicochemical
[1] = Stability test: cyclocreatine concentration in suspension formulation over 40 days; conditions: suspension in water (~200 mg/mL)
[2] = Solubility of cyclocreatine in water
Description: The collected micronized API was then formulated with water to form an aqueous microsuspension. 20.0 grams of cyclocreatine was weighed into a graduated vessel. Approximately 80 mL of water was added and the solution mixed to allow partial dissolution. After mixing for 5 minutes, water was added to dilute to a final volume of 100 mL.

[3] = Particle size analysis before and after milling; conditions: for Particle size: 200 mg/mL, 1.0 mm zirconia beads, 3344 rpm
Text: To a milling vessel size of 0.6 liter of a Glen Dyno Mill about 70% volume of zirconia grinding media was charged. An agitator shaft activated the media, creating shearing and impacting forces. The rotation of the agitator imparted energy to the surrounding media and fractures the cyclocreatine solids suspended in water, resulting in overall reduction in particle size.
Water was charged into a stainless steel vessel equipped with overhead agitator and blanketed with nitrogen followed by the addition of cyclocreatine. The mixture was pumped via a peristaltic pump into the grinding chamber. The milled sample exiting the chamber was collected in another stainless steel vessel (also equipped with an overhead agitator and blanked with nitrogen) until the first vessel was empty at which time a three way valve was switched as to continue pumping the mixture in one of the vessels into the grinding chamber. The drug concentration in the suspension ranged from 10-20% w/v. […] The rotation of the disk accelerated the milling media radially. The suspension mixture flowed axially through the milling chamber where the shear forces generated during impaction of the milling media with the solid particles provided the energy input to fracture the drug into nanometer-sized particles. Up to 40% nanoparticles were observed. In another embodiment, up to about 10% nanoparticles by volume were observed. The temperature inside the grinding chamber was controlled by circulating coolant through the outer jacket. The resultant microsuspension had good flow characteristics and appeared milky (FIG. 2).
For example a 200 mg/mL solid concentration of formulation processed in a 0.6 liter sized grinding chamber filled with 1.0 mm diameter zirconia beads and a 3344 rpm agitator speed for a total of two hours produced samples with similar final particle size in three repeated experiments. In all instances, the particle size decreased markedly within 30 min processing time from the initial 400 μm to about 80 μm, but with little change observed between 30 and 120 min. Further prolonging in the milling times was not beneficial, because decreased particle sizes were not achieved. In addition to particle size analysis (FIG. 3), the SEM micrographs (FIG. 4) further confirmed that the milling process as effective in converting the original cyclocreatine particles into the low micron range.
(§1) The cyclocreatine samples were analyzed before and after milling (Example 1) to assess the effect of milling on the drug stability.

[4] = Drug stability: cyclocreatine degradation after milling
Description: as §1
After milling for about 45 min, the particle size of the micronized API appeared to have been reduced uniformly for the entire batch of sample.

[5] = by process condition (un-milled vs wet bead mill)

Cyclocreatine concentration in the suspension sample ([1]; day 0): 177.1 ± 0.5 mg/g
Cyclocreatine concentration in the suspension sample ([1]; day 7): 174.6 ± 1.0 mg/g
Cyclocreatine concentration in the suspension sample ([1]; day 11): 175.7 ± 1.0 mg/g
Cyclocreatine concentration in the suspension sample ([1]; day 26): 176.9 ± 0.5 mg/g
Cyclocreatine concentration in the suspension sample ([1]; day 40): 180.1 ± 1.5 mg/g
solubility [2]: 17 mg/mL (≈ 119 mM)
Nanoparticles observed ([3]; after wet bead milling): Up to 40%
Nanoparticles by volume observed ([3]; after wet bead milling, another embodiment, by volume): up to 10%
Particle Size (μm, Volume weighted average) [3, 5]: 400 μm
Particle size ([3]; initial, before wet milling): 400 μm
Particle size ([3]; within 30 min processing time): about 80 μm
Cyclocreatine degradation after milling process (%) [4, 5]: 0%
Stability during the milling process ([4]; dry milling (pin mill), about 45 min): stable
Structure (SMILES): NC1=NCCN1CC(=O)O [Cyclocreatine, cyclocreatine]
